Patent US20060211606A1, “Peptides” (priority 2005, published 2006)
Where no end group is shown, it is not given here. [ ]: non-standard residue; d: D form. The star is where a group is joined. Hexanoyl = CCCCCC(=O)*; PEG = not defined here; Ahx = NCCCCCC(=O)O

Experiments:
[1] = system: C2C12 muscle cells; test: C2C12 proliferation, BrdU incorporation; assay type: cell-based, mouse; conditions: 500 cells per well; 0.1, 1, 10 and 100 ng/ml; stimulation 24 hours, BrdU 5 hours
Protocol: (B) Peptides A2, A4, A6 and A8: C2C12 muscle cells at a 500 cells/well. Cultivation was carried out for 24 hours in 10% FBS, followed by starvation for 24 hours in 0.1% BSA, stimulation for 24 hours and then treatment with BrdU for 5 hours. Concentrations of 0.1, 1, 10 and 100 ng/ml of peptides A2, A4, A6 and A8 were tested, along with 0.1, 1, 10 and 100 ng/ml IGF-I (See the right-hand set of results). BrdU incorporation was measured to assess the level of cell proliferation achieved. Controls containing no cells, medium only, 5% FBS and no BrdU were also provided. Values on the Y-axis are for fluorescence (absorbence at 370 nm; mean plus standard error across 4 wells). The first column on the left relates to a control in which no cells were present. The next four relate to peptide A2 at concentrations of 0.1, 1, 10 and 100 ng/ml. The next four relate to peptide A4 at concentrations of 0.1, 1, 10 and 100 ng/ml. The central three relate to controls containing medium only (med), 5% FBS) and no BrdU. The next four relate to peptide A6 at concentrations of 0.1, 1, 10 and 100 ng/ml. The next four relate to peptide A8 at concentrations of 0.1, 1, 10 and 100 ng/ml. The right-hand group of results relate to IGF-I (See Example 1.5) at concentrations of 0.1, 1, 10 and 100 ng/ml.
The 8 amino acid peptides described in 1.3.2 above and referred to in FIG. 8B as A2, A4, A6 and A8 were tested for the ability to induce proliferation of C2C12 muscle cells at a density of 500 cells per well. Cultivation was carried out for 24 hours in 10% FBS, followed by starvation for 24 hours in 0.1% BSA, stimulation for 24 hours and then treatment with BrdU for 5 hours. Concentrations of 0.1, 1, 10 and 100 ng/ml of peptides A2, A4, A6 and A8 were tested, along with 0.1, 1, 10 and 100 ng/ml IGF-I (See the right-hand set of results in FIG. 8B). Incorporation of BrdU was measured to assess the level of cell proliferation achieved. Controls containing no cells, medium only, 5% FBS and no BrdU were also provided.

[2] = system: C2C12 muscle cells; test: C2C12 proliferation, Alamar Blue assay; assay type: cell-based, mouse; conditions: 2000 cells per well; 2, 5, 50 and 100 ng/ml; medium with IGF-I 2 ng per ml; 36 hours
Protocol: (A) DMGF and CMGF Peptides: C2C12 Cells were provided at 2000 cell/well, in a medium containing DMEM (1000 mg/L glucose), plus BSA(100 ug/ml), plus IGF-I (2 ng per ml) and incubated for 36 hours. Cell proliferation was then assessed using an Alamar Blue assay. […] Y-axis values are fluorescence (wavelength of excitation 535 nm, measurement at 590 nm; mean plus standard error) in an Alamar Blue assay.
The 8 amino acid peptides described in 1.3.1 above and referred to in FIG. 8A as DMGF and CMGF were tested for the ability to induce proliferation of C2C12 muscle cells at a density of 2000 cells per well in a medium containing DMEM (1000 mg/L glucose), BSA (10 ug/ml) and IGF-I (2 ng per ml). Concentrations of 2, 5, 50 and 100 ng/ml of DMGF and CMGF were tested (See the left-hand and middle sets of results in FIG. 8), along with 2, 5, 50 and 100 ng/ml IGF-I alone (See the right-hand set of results in FIG. 8). After 36 hours incubation, an Alamar Blue assay was used to assess the level of cell proliferation achieved. A control containing only the medium was also provided.

[3] = system: mononucleated myoblasts (satellite cells); test: Myoblast replication, cell number by Alamar Blue method (0 to 3 scale); assay type: cell-based
Protocol: FIG. 2: Effect of Alanine substitution and C-terminal and N-terminal truncation on stability and biological activity—further sequence alignment, comparing modified sequences of Peptides 1-6 (SEQ ID NOS: 15-20) and Short peptides 1-4 (SEQ NOS: 21-24), and detailing impact of changes on stability as measured by incubation in human plasma and biological activity as measured by testing on muscle cell line (see Examples for details of test procedures).
In this regard, one method of assessing biological activity is the Alamar Blue method as discussed in Example 5.2.2. This involves contacting a polypeptide with mononucleated myoblast cells and assessing the extent to which it causes them to proliferate. This can be scored in any suitable way, e.g. on a scale of 0 to 3 as discussed in the Examples. Activity may also be measured via cyclins, such as cyclin ID, which are early markers of cell division. Activity may also be measured via the use of bromodeoxy uridine (BrdU).
Biological activity was determined using an in vitro system by measuring the ability of the C terminal peptides to induce mononucleated myoblasts (satellite cells) to replicate. Cell number was determined using the Alamar Blue method.

[4] = Stability to proteolytic cleavage in fresh human plasma, Western blotting
Protocol: Western blotting was then used to assess the survival of each peptide over those time intervals: A=0 minutes; B=30 minutes; C=2 hours; D=24 hours.
Stability may be assessed in terms of half-life in human plasma or by any other suitable technique. In particular, stability can be measured by assessing peptides' susceptibility to proteolytic cleavage in fresh human plasma according to the technique of Example 5.1 below, in which the plasma was stored until used at −70° C., 10 μg of peptide was added to 2 ml of plasma, plus 7 ml of PBS and the mixture was incubated at 37° C. for different time intervals. Western blotting was then used to detect each peptide over those time intervals.
The plasma was stored until used at −70° C. 10 μg of peptide were added to 2 ml of plasma, plus 7 ml of PBS. This mixture was incubated at 37° C. for different time intervals.
Like biological activity, stability was scored on a scale of 0 to 3.
Stability was determined as the amount of the peptide that remained intact and bound to the specific antibody in the following way:

| Substance | proliferation of C2C12 cells (BrdU incorporation) [1] | biological activity score (scale of 0 to 3) [3] | further results |
| --- | --- | --- | --- |
| A2: Gly-Ser-Thr-Phe-Glu-Glu-Arg-Lys (SEQ ID NO:34), amidated at the C-terminus, unmodified at the N-terminus (H-GSTFEERK-NH2) [Peptide A2] | induced cell proliferation |  |  |
| A4: Gly-Ser-Thr-Phe-Glu-Glu-Arg-Lys (SEQ ID NO:34), amidated at the C-terminus, hexanoic acid moiety at the N-terminus (Hexanoyl-GSTFEERK-NH2; SMILES CCCCCC(=O)NCC(=O)N[C@@H](CO)C(=O)N[C@H](C(=O)N[C@@H](Cc1ccccc1)C(=O)N[C@@H](CCC(=O)O)C(=O)N[C@@H](CCC(=O)O)C(=O)N[C@@H](CCCNC(=N)N)C(=O)N[C@@H](CCCCN)C(N)=O)[C@@H](C)O) [Peptide A4] | induced cell proliferation |  |  |
| A6: Gly-Ser-Thr-Phe-Glu-Glu-Arg-Lys (SEQ ID NO:34), amidated at the C-terminus, amino-hexanoic acid moiety at the N-terminus ([Ahx]GSTFEERK-NH2; N-terminus assumed; SMILES C[C@@H](O)[C@H](NC(=O)[C@H](CO)NC(=O)CNC(=O)CCCCCN)C(=O)N[C@@H](Cc1ccccc1)C(=O)N[C@@H](CCC(=O)O)C(=O)N[C@@H](CCC(=O)O)C(=O)N[C@@H](CCCNC(=N)N)C(=O)N[C@@H](CCCCN)C(N)=O) [Peptide A6] | induced cell proliferation |  |  |
| A8: Gly-Ser-Thr-Phe-Glu-Glu-His-Lys (SEQ ID NO:33), amidated at the C-terminus, hexanoic acid at the N-terminus (Hexanoyl-GSTFEEHK-NH2; SMILES CCCCCC(=O)NCC(=O)N[C@@H](CO)C(=O)N[C@H](C(=O)N[C@@H](Cc1ccccc1)C(=O)N[C@@H](CCC(=O)O)C(=O)N[C@@H](CCC(=O)O)C(=O)N[C@@H](Cc1c[nH]cn1)C(=O)N[C@@H](CCCCN)C(N)=O)[C@@H](C)O) [Peptide A8] | induced cell proliferation |  |  |
| CMGF: Gly-Ser-Thr-Phe-Glu-Glu-His-Lys (SEQ ID NO:33), N-terminal hexanoic acid, amidated at the C-terminal end (Hexanoyl-GSTFEEHK-NH2; SMILES CCCCCC(=O)NCC(=O)N[C@@H](CO)C(=O)N[C@H](C(=O)N[C@@H](Cc1ccccc1)C(=O)N[C@@H](CCC(=O)O)C(=O)N[C@@H](CCC(=O)O)C(=O)N[C@@H](Cc1c[nH]cn1)C(=O)N[C@@H](CCCCN)C(N)=O)[C@@H](C)O) |  |  | proliferation of C2C12 cells (Alamar Blue fluorescence) [2]: induced cell proliferation |
| DMGF: Gly-Ser-Thr-Phe-Glu-Glu-His-Lys (SEQ ID NO:33), N-terminal PEGylation, amidated at the C-terminal end ({PEG}-GSTFEEHK-NH2; reading uncertain; also: printed as Gly-Ser-Thr-Phe-Glu-Glu-His-Lys) |  |  | proliferation of C2C12 cells (Alamar Blue fluorescence) [2]: induced cell proliferation |
| Short peptide 2: SEQ ID NO: 15 with Arg14→Ala and the four C-terminal amino acids removed (YQPPSTNKNTKSQARKGSTF) |  | zero |  |
| Short peptide 3: SEQ ID NO: 15 with Arg14→Ala and the three N-terminal amino acids removed (PSTNKNTKSQARKGSTFEEHK) |  | zero |  |
| Short peptide 4: SEQ ID NO: 15 with Arg14→Ala and the five N-terminal amino acids removed (TNKNTKSQARKGSTFEEHK) |  | zero |  |
| YQPPSTNKNTKAQRRKGSTFEEHK [Peptide 3] |  | 3 (significant increase in cell number at 1 h.) |  |
| YQPPSTNKNTKSQAAKGSTFEEHK [Peptide 6] |  | zero |  |
| YQPPSTNKNTKSQRRKGSTFEEHK [Peptide 1] |  |  | biological activity (in words) [3]: little or no activity; stability score (scale of 0 to 3) ([4]; fresh human plasma, Western blotting, intact peptide bound to specific antibody): 1 (marked loss of detectable antibody binding by ½ hours.) |
| YQPPSTNKNTKSQRRKGSTFEERK [native human MGF C terminal Ec peptide, reference compound] |  |  | half-life in human plasma ([4]; human plasma): short half-life |
